Patent US11242351B2, “Tricyclic inhibitors of the BCL6 BTB domain protein-protein interaction and uses thereof” (priority 2017, dated 2022)

Tests used:
[1] = test system: BCL6 reporter construct in SuDHL4-3×BCL6-TK-Luc cells; assay: Cell-based luciferase assay (BCL6 reporter); conditions: 48 h, read-out: Luc IC50
Procedure, shortened: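 SuDHL4 cells stably carrying a 3×BCL6-site TK-promoter firefly luciferase reporter, 15,000 cells/well, dosed over 10 concentrations (top 10 μM) and cultured two days at 37° C, 5% CO2. Luciferase luminescence read after room-temperature equilibration with neolite reagent.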

[2] = molecular target: BCL6 BTB domain (biotin-thrombin-BCL6 amino acids 1-129) (Homo sapiens (Human), UniProt P41182); assay: Surface Plasmon Resonance (SPR) assay; format: binding; conditions: Biacore T200, single cycle kinetic analysis
Protocol: Surface Plasmon Resonance (SPR) Assay
SPR studies were performed using a Biacore™ T200 instrument (GE Health Sciences Inc.). […] The Biacore flow rate was set at 100 μl/min. […] Curve fitting and KD calculations were performed with the Biacore T200 Evaluation software (GE Health Sciences Inc).

Karpas422 cells = assay: Tumor cell growth inhibition assay; format: cell-based; conditions: Homo sapiens, KARPAS-422, 144 h, read-out: GI Karpas EC50
Procedure, shortened: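 Karpas422 cells were dosed over a 10-point concentration range (top 5 μM) and grown 6 days at 37 °C, 5% CO2, in Alpha-MEM with 10% FBS. Viability was read as ATPlite luminescence.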

| Structure (SMILES) | IC50 [1] | Kd [2] | EC50 (Karpas422 cells) |
| --- | --- | --- | --- |
| C[C@@H]1CN(C)C[C@H](C)N1c1cc(NC(=O)Cn2cc(-c3cc(C(N)=O)c(O)c(F)c3F)c3c(=O)n4c(nc32)CCC4)c(Cl)c(F)n1 [I-97, 5-(1-(2-((3-chloro-2-fluoro-6-((2R,6S)-2,4,6-trimethylpiperazin-1-yl)pyridin-4-yl)amino)-2-oxoethyl)-4-oxo-4,6,7,8-tetrahydro-1H-dipyrrolo[1,2-a:2′,3′-d]pyrimidin-3-yl)-3,4-difluoro-2-hydroxy-benzamide] | 63.5 nM | 11.9 nM | 70.9 nM |
| C[C@@H]1CN(C)C[C@H](C)N1c1cc(NC(=O)Cn2cc(-c3cc(C(N)=O)c(O)c4c3OCO4)c3c(=O)n4c(nc32)CCC4)c(Cl)c(F)n1 [I-98, 7-(1-(2-((3-chloro-2-fluoro-6-((2R,6S)-2,4,6-trimethylpiperazin-1-yl)pyridin-4-yl)amino)-2-oxoethyl)-4-oxo-4,6,7,8-tetrahydro-1H-dipyrrolo [1,2-a:2′,3′-d]pyrimidin-3-yl)-4-hydroxybenzo [d][1,3]dioxole-5-carboxamide] | 8.16 nM | 0.96 nM | 8.42 nM |
